Measurements from patent publication US10294202B2, “Pyrrolidinones as herbicides” (FMC Corporation, priority 2013, dated 2019).

Experiments:
[1] = tested on: pigweed; test: Test A pre-/postemergence herbicide test; type: in vivo, Amaranthus retroflexus; settings: for Plant response rating, Pigweed: 0 to 100 scale
In short: (§1)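 Both application timings used compounds in a non-phytotoxic solvent plus surfactant. Pre-emergence: soil sprayed directly after seeding into loam/sand. Post-emergence: foliage of 2–10 cm seedlings (1–2 leaves) sprayed. Injury rated ~10 days later, 0–100.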

[2] = tested on: barnyardgrass; test: Test B flooded paddy test; type: in vivo, Echinochloa crus-galli; settings: 500 g ai/ha, Flood; scale of 0 to 100 where 0 is no effect and 100 is complete control
In short: (§2)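 Scoring: visual, compared with untreated controls, 0 = no effect through 100 = complete control, taken 13 to 15 days after treatment in the greenhouse. Compounds had been added to paddy water over soil flooded 3 cm deep at the plants' 2-leaf stage.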

[3] = tested on: ducksalad; test: Test B flooded paddy test; type: in vivo, Heteranthera limosa; settings: 500 g ai/ha, Flood; scale of 0 to 100 where 0 is no effect and 100 is complete control
In short: as §2

[4] = tested on: ryegrass, Italian; test: Test A pre-/postemergence herbicide test; type: in vivo, Lolium multiflorum; settings: for Plant response rating, Ryegrass, Italian: 0 to 100 scale
In short: as §1

[5] = tested on: galium; test: Test A postemergence herbicide test; type: in vivo, Galium aparine; settings: for Plant response rating, Galium: 125 g ai/ha, 0 to 100 scale, 0 no effect, 100 complete control; for Galium plant response rating (0 to 100 scale, 0 is no effect, 100 is complete control): 500 g ai/ha
In short: (§3)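 Potted in loam soil/sand blend; postemergence application at 1–2 leaf stage (2–10 cm). Greenhouse ~10 d. Visual injury vs untreated, 0–100 scale; 100 = complete control.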

[6] = tested on: barnyardgrass; test: Test A pre-/postemergence herbicide test; type: in vivo, Echinochloa crus-galli
In short: as §1

[7] = tested on: wheat; test: Test A pre-/postemergence herbicide test; type: in vivo, Triticum aestivum; settings: Postemergence; for Plant response rating, Wheat: 125 g ai/ha, 0 to 100 scale, 0 no effect, 100 complete control; for Wheat plant response rating (0 to 100 scale, 0 is no effect, 100 is complete control): 500 g ai/ha
In short: as §1

[8] = tested on: sedge, umbrella; test: Test B flooded paddy test; type: in vivo, Cyperus difformis; settings: 500 g ai/ha, Flood; scale of 0 to 100 where 0 is no effect and 100 is complete control
In short: as §2

[9] = tested on: kochia; test: Test A pre-/postemergence herbicide test; type: in vivo, Kochia scoparia; settings: for Plant response rating, Kochia: 0 to 100 scale
In short: as §1

[10] = tested on: blackgrass; test: Test A postemergence herbicide test; type: in vivo, Alopecurus myosuroides
In short: as §3

[11] = tested on: ragweed; test: Test A pre-/postemergence herbicide test; type: in vivo, Ambrosia elatior; settings: for Plant response rating, Ragweed: 0 to 100 scale
In short: as §1

[12] = tested on: giant foxtail; test: Test A pre-/postemergence herbicide test; type: in vivo, Setaria faberii; settings: for Plant response rating, Foxtail, Giant: 0 to 100 scale
In short: as §1

[13] = tested on: corn; test: Test A pre-/postemergence herbicide test; type: in vivo, Zea mays; settings: Postemergence
In short: as §1

[14] = tested on: rice; test: Test B flooded paddy test; type: in vivo, Oryza sativa; settings: 500 g ai/ha, Flood; scale of 0 to 100 where 0 is no effect and 100 is complete control
In short: as §2

[15] = 125 g ai/ha, visual rating, 0 no effect, 100 complete control, approximately 10 days, preemergence
[16] = Postemergence, 125 g ai/ha, 0 no effect, 100 complete control
[17] = 125 g ai/ha, visual rating, 0 to 100 scale, 0 no effect, 100 complete control, approximately 10 days, preemergence
[18] = Postemergence, 125 g ai/ha, 0 to 100 scale, 0 no effect, 100 complete control
[19] = Postemergence, 500 g ai/ha, 0 to 100 scale (0 no effect, 100 complete control)
[20] = preemergence, 500 g ai/ha, 0 to 100 scale (0 no effect, 100 complete control)
[21] = 125 g ai/ha, 0 to 100 scale, 0 no effect, 100 complete control
[22] = 500 g ai/ha, 0 to 100 scale (0 no effect, 100 complete control)

Row | Compound | Plant response rating, Pigweed [1, 15] | Plant response rating, Pigweed [1, 16] | Pigweed plant response rating (0 to 100 scale, 0 is no effect, 100 is complete control) ([1]; Postemergence, 500 g ai/ha) | Plant response rating, Pigweed ([1]; preemergence, 500 g ai/ha) | Plant response rating, Barnyardgrass [2] | Plant response rating, Ducksalad [3] | Plant response rating, Ryegrass, Italian [4, 15] | Plant response rating, Ryegrass, Italian [4, 16] | Ryegrass, Italian plant response rating (0 to 100 scale, 0 is no effect, 100 is complete control) ([4]; Postemergence, 500 g ai/ha) | Plant response rating, Ryegrass, Italian ([4]; preemergence, 500 g ai/ha) | Plant response rating, Galium [5] | Galium plant response rating (0 to 100 scale, 0 is no effect, 100 is complete control) [5] | Plant response rating, Barnyardgrass [6, 17] | Plant response rating, Barnyardgrass [6, 18] | Plant response rating, Barnyardgrass [6, 20] | Plant response rating, Wheat [7] | Wheat plant response rating (0 to 100 scale, 0 is no effect, 100 is complete control) [7] | Plant response rating, Sedge, Umbrella [8] | Plant response rating, Kochia [9, 15] | Plant response rating, Kochia [9, 16] | other results
1 | O=C1NCC(c2cccc(OC(F)(F)C(F)F)c2)C1C(=O)Nc1cccc(F)c1F (racemic) [Compound 123] | 70 | 80 | 90 | 80 | 60 | 100 | 40 | 40 | 50 | 60 | 60 | 70 | 80 | 70 | 90 | 50 | 60 | 0 | 80 | 60 | Plant response rating, Barnyardgrass [6, 19]: 80; Kochia plant response rating (0 to 100 scale, 0 is no effect, 100 is complete control) ([9]; Postemergence, 500 g ai/ha): 70; Plant response rating, Kochia ([9]; preemergence, 500 g ai/ha): 90; Plant response rating, Blackgrass [10, 21]: 60; Plant response rating, Blackgrass [10, 22]: 70; Plant response rating, Ragweed [11, 15]: 70; Plant response rating, Ragweed [11, 16]: 50; Ragweed plant response rating (0 to 100 scale, 0 is no effect, 100 is complete control) ([11]; Postemergence, 500 g ai/ha): 70; Plant response rating, Ragweed ([11]; preemergence, 500 g ai/ha): 80; Plant response rating, Foxtail, Giant [12, 15]: 90; Plant response rating, Foxtail, Giant [12, 16]: 80; Foxtail, Giant plant response rating (0 to 100 scale, 0 is no effect, 100 is complete control) ([12]; Postemergence, 500 g ai/ha): 90; Plant response rating, Foxtail, Giant ([12]; preemergence, 500 g ai/ha): 90; Plant response rating, Corn [13, 21]: 50; Plant response rating, Corn [13, 22]: 80; Plant response rating, Rice [14]: 0
2 | O=C1NCC(c2cccc(OC(F)(F)C(F)F)c2)C1C(=O)Nc1ccccc1Cl (racemic) [Compound 125] | 0 | 0 | 20 | 0 | 30 | 85 | 0 | 0 | 0 | 20 | 0 | 60 | 80 | 60 | 90 | 0 | 0 | 0 | 30 | 20 | Plant response rating, Barnyardgrass [6, 19]: 70; Kochia plant response rating (0 to 100 scale, 0 is no effect, 100 is complete control) ([9]; Postemergence, 500 g ai/ha): 60; Plant response rating, Kochia ([9]; preemergence, 500 g ai/ha): 70; Plant response rating, Blackgrass [10, 21]: 20; Plant response rating, Blackgrass [10, 22]: 50; Plant response rating, Ragweed [11, 15]: 0; Plant response rating, Ragweed [11, 16]: 0; Ragweed plant response rating (0 to 100 scale, 0 is no effect, 100 is complete control) ([11]; Postemergence, 500 g ai/ha): 0; Plant response rating, Ragweed ([11]; preemergence, 500 g ai/ha): 0; Plant response rating, Foxtail, Giant [12, 15]: 80; Plant response rating, Foxtail, Giant [12, 16]: 70; Foxtail, Giant plant response rating (0 to 100 scale, 0 is no effect, 100 is complete control) ([12]; Postemergence, 500 g ai/ha): 80; Plant response rating, Foxtail, Giant ([12]; preemergence, 500 g ai/ha): 90; Plant response rating, Corn [13, 21]: 0; Plant response rating, Corn [13, 22]: 0; Plant response rating, Rice [14]: 0
3 | COc1cc(C2CNC(=O)C2C(=O)Nc2ccc(F)cc2F)ccc1F (racemic) [Compound 131] | 0 | 0 | 0 | 0 | 40 | 70 | 0 | 0 | 0 | 0 | 0 | 0 | 50 | 50 | 60 | 0 | 0 | 30 | 0 | 0 | Barnyardgrass plant response rating (0 to 100 scale, 0 is no effect, 100 is complete control) ([6]; Postemergence, 500 g ai/ha): 60; Kochia plant response rating (0 to 100 scale, 0 is no effect, 100 is complete control) ([9]; Postemergence, 500 g ai/ha): 0; Plant response rating, Kochia ([9]; preemergence, 500 g ai/ha): 0; Plant response rating, Blackgrass [10, 21]: 0; Blackgrass plant response rating (0 to 100 scale, 0 is no effect, 100 is complete control) ([10]; 500 g ai/ha): 0; Plant response rating, Ragweed [11, 15]: 0; Plant response rating, Ragweed [11, 16]: 0; Ragweed plant response rating (0 to 100 scale, 0 is no effect, 100 is complete control) ([11]; Postemergence, 500 g ai/ha): 0; Plant response rating, Ragweed ([11]; preemergence, 500 g ai/ha): 0; Plant response rating, Foxtail, Giant [12, 15]: 50; Plant response rating, Foxtail, Giant [12, 16]: 50; Foxtail, Giant plant response rating (0 to 100 scale, 0 is no effect, 100 is complete control) ([12]; Postemergence, 500 g ai/ha): 50; Plant response rating, Foxtail, Giant ([12]; preemergence, 500 g ai/ha): 60; Plant response rating, Corn [13, 21]: 0; Corn plant response rating (0 to 100 scale, 0 is no effect, 100 is complete control) ([13]; 500 g ai/ha): 0; Plant response rating, Rice [14]: 0
4 | COc1cc(C2CNC(=O)C2C(=O)Nc2ccc(F)c(F)c2F)ccc1F (racemic) [Compound 132] | 0 | 0 | 0 | 0 | 40 | 85 | 0 | 0 | 0 | 0 | 0 | 0 | 70 | 60 | 90 | 0 | 0 | 0 | 0 | 0 | Barnyardgrass plant response rating (0 to 100 scale, 0 is no effect, 100 is complete control) ([6]; Postemergence, 500 g ai/ha): 80; Kochia plant response rating (0 to 100 scale, 0 is no effect, 100 is complete control) ([9]; Postemergence, 500 g ai/ha): 10; Plant response rating, Kochia ([9]; preemergence, 500 g ai/ha): 0; Plant response rating, Blackgrass [10, 21]: 0; Blackgrass plant response rating (0 to 100 scale, 0 is no effect, 100 is complete control) ([10]; 500 g ai/ha): 0; Plant response rating, Ragweed [11, 15]: 0; Plant response rating, Ragweed [11, 16]: 0; Ragweed plant response rating (0 to 100 scale, 0 is no effect, 100 is complete control) ([11]; Postemergence, 500 g ai/ha): 0; Plant response rating, Ragweed ([11]; preemergence, 500 g ai/ha): 0; Plant response rating, Foxtail, Giant [12, 15]: 70; Plant response rating, Foxtail, Giant [12, 16]: 50; Foxtail, Giant plant response rating (0 to 100 scale, 0 is no effect, 100 is complete control) ([12]; Postemergence, 500 g ai/ha): 70; Plant response rating, Foxtail, Giant ([12]; preemergence, 500 g ai/ha): 80; Plant response rating, Corn [13, 21]: 0; Corn plant response rating (0 to 100 scale, 0 is no effect, 100 is complete control) ([13]; 500 g ai/ha): 0; Plant response rating, Rice [14]: 0
